Measured values reported in ChEMBL document CHEMBL1154550, “Isolation of psammaplin A 11'-sulfate and bisaprasin 11'-sulfate from the marine sponge Aplysinella rhax” (J Nat Prod, 2000).
Active and inactive are the calls of the source. No cut-off for these calls is given here.

Key:
[1] = biological target: T1, Adenosine receptor A1 (Rattus norvegicus) (UniProt P25099); assay: Displacement of […] from adenosine A1 receptor in rat brain up to 2.2 mM; format: tissue-based
T1 sequence (whole entry): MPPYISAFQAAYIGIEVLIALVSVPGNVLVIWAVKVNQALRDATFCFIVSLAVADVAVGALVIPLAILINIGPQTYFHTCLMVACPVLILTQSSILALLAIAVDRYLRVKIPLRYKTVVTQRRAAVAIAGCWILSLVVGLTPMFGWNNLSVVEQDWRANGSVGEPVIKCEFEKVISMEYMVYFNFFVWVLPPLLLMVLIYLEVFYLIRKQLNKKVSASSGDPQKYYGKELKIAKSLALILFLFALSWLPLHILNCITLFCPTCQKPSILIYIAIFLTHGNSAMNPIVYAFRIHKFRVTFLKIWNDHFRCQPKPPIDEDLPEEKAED

Adenosine receptor A1 = biological target: T2, Adenosine receptor A1 (Rattus norvegicus, UniProt P25099); assay: Displacement of […] from adenosine A1 receptor in rat brain; format: tissue-based
T2 sequence (P25099 whole entry): T1 sequence (whole entry)

| Structure (SMILES) | Activity [1] | IC50 (Adenosine receptor A1) |
| --- | --- | --- |
| O=C(NCCSSCCNC(=O)/C(Cc1cc(Br)c(O)c(-c2cc(C/C(=N\O)C(=O)NCCSSCCNC(=O)/C(Cc3ccc(OS(=O)(=O)O)c(Br)c3)=N/O)cc(Br)c2O)c1)=N/O)/C(Cc1ccc(O)c(Br)c1)=N/O | inactive |  |
| O=C(NCCSSCCNC(=O)/C(Cc1ccc(OS(=O)(=O)O)c(Br)c1)=N/O)/C(Cc1ccc(O)c(Br)c1)=N/O |  | 90 µM |
| O=C(NCCSSCCNC(=O)/C(Cc1ccc(O)c(Br)c1)=N/O)/C(Cc1ccc(O)c(Br)c1)=N/O [PSAMMAPLIN A] |  | 20 µM |
